Experimental data taken from patent publication US7476729B2, “Dbait and uses thereof” (Institut Curie, priority 2003, dated 2009).

System: digestive tumors induced in K-Ras^V12G×Apc^1638N transgenic mice
Experiment: Chemosensitization of digestive tumors in K-Ras^V12G×Apc^1638N transgenic mice
Assay type: in vivo
Excerpt: An endogenous mouse tumor model was chosen to assess the ability of Dbait molecules to sensitize anticancer chemotherapy. To this end, transgenic mice carrying K-Ras^V12G and Apc^1638N mutations were used. They were obtained by breeding two transgenic mice: one carries K-Ras^V12G mutant under the control of the mouse villin promoter(pVill/K-Ras^V12G) (Janssen et al., 2002), the other contains Apc^1638N mutation in one allele (Fodde et al., 1994). Transgenic mice with pVill/K-Ras^V12G×Apc^1638N mutations developed spontaneous tumors in the digestive tract at the age of about 5 months and died rapidly.
They were treated at the mean age of 12 weeks by a combination of chemotherapy (5FU+CPT11) and of Dbait32H (SEQ ID NO: 1) versus chemotherapy alone, according to the protocol shown in FIG. 5.1 panel A. The protocol includes three treatment cycles.
Each cycle consists of intraperitoneal injection of 0.6 mg 5FU and 0.6 mg CPT11, along with 0.1 mg Dbait32H (SEQ ID NO: 1) by oral administration, three times a week, followed by one week rest.
5FU (5 fluorouracile, Teva) was prepared in 0.9% NaCl solution at the concentration of 50 mg/ml. CPT11/Irinotecan (Campto, Aventis) was prepared in 0.9% NaCl solution at the concentration of 20 mg/ml. The health status and survival of the mice were monitored till the death. […]

Substance: Dbait32H: hairpin double strand DNA with a stem of 32-bp, hexaethyleneglycol linker, phosphorothioate at the free blunt end (DNA ACGCACGGGTGTTGGGTCGTTTGTTCGGATCT; DNA, backbone not given here; hairpin, hexaethyleneglycol loop, 3-bp phosphorothioate at free blunt end)
- median survival (0.1 mg Dbait32H oral with 0.6 mg 5FU and 0.6 mg CPT11 i.p., three times a week, three cycles): 226 days
- reduction of tumor numbers (macroscopy and histology) (5FU+CPT11 and Dbait32H (n=8) versus chemotherapy alone (n=7), week 18): > 30%
